The record followed here is US20040127455A1, “Muscosal immunoregulatory agent and its use” (KABUSHIKI Kaisha Hayashibara Seibutsu KK, priority 2000, published 2004).

In assay [1] the test system is immunocompetent cells from the Peyer's patches. Put plainly: IFN-γ production by immunocompetent cells from the Peyer's patches of orally treated mice, LPS stimulation (Experiment 1). In kind it is in vivo, male C3H/HeN mice. The settings on record: 1 g/kg oral, once per day for five days, two days culture, versus non-treated mice (FIG. 1). The method, then: The effect on response of immunocompetent cells with trehalose administration was evaluated based on the production level of IFN-γ as a merkmal when the immunocompetent cells from the Peyer's patches were stimulated with lipopolysaccharide (LPS). IFN-γ is a cytokine which also improves the production of IgA as described above. α,α-Trehalose crystalline powder (registered trademark of “TREHA”, commercialized by Hayashibara Shoji Co. Ltd., Okayama, Japan) was dissolved in distilled water and sterilized, and then administrated into male C3H/HeN, five weeks aged mice (ten mice in each group) through oral pathway for five days by one time per day with a dosage of 1 g/kg mouse body weight of α,α-trehalose. Non-α,α-trehalose administrated mice as a control were administrated with an equal volume of distilled water. All the mice were bred under a clean environment, and freely fed with a sterilized solid fodder and water. […] The cells were incubated for two days in an incubator maintained at 37° C. and 5% CO2, after that, the IFN-γ concentration in each culture was measured by a conventional enzyme immunoassay. […]

Assay [2] shares this test system. Put plainly: IL-2, IFN-γ and IgA production by immunocompetent cells from the Peyer's patches of orally treated mice, LPS or Con A stimulation (Experiment 2). To be noted: 0.1 g/kg oral, five times per week for four weeks, three days culture. In kind it is in vivo, female ddY mice. The protocol: The effect on the response of immunocompetent cells with trehalose administration was evaluated by the production level of IL-2, IFN-γ, and IgA as a merkmal when the immunocompetent cells from the Peyer's patches stimulated with lipopolysaccharide (LPS) or Concanavalin A (Con A). Specifically, 0.1 g/kg mouse body weight of α,α-trehalose was administrated into female ddY mice through oral administration for four weeks with five times per a week, and non-α,α-trehalose administrated mice were used as a control. All the mice were anatomized and picked up all the Peyer's patches, which were then cut into pieces and treated with 0.2% (w/v) of collagenase solution at 37° C. for 30 minutes, passed through a cell strainer to remove non-digestive materials, and centrifuged to obtain a pellet. The pellet was suspended with a 45% (v/v) percol solution, and the suspension was put on a 75% (v/v) percol solution and centrifuged. Then, immunocompetent cells in an inter layer of percol were recovered and suspended in RPMI1640 medium with 10% of fetal calf serum and 5×10^−5 mol/l of 2-mercaptethanol. The resulting suspension was divided into three groups, and the two groups of which were mixed with 2 μg/ml of LPS or 5 μg/ml of Con A and adjusted a final concentration to 1×10^6 cells/ml. The resulting group as a control was not received with the above stimulation. They were incubated for three days in an incubator maintained at 37° C. and 5% CO2. Thereafter, the concentrations of the IL-2, IFN-γ and IgA concentration in the resulting cultures were measured by a conventional immunoassay method in Experiment 1.

`OC[C@H]1O[C@H](O[C@H]2O[C@H](CO)[C@@H](O)[C@H](O)[C@H]2O)[C@H](O)[C@@H](O)[C@@H]1O` [α,α-Trehalose, α,α-trehalose]: in assay [1] (cells with 0 μg/ml LPS), the “IFN-γ production with no LPS stimulation” value is recorded as “tendency to decrease IFN-γ production”. In assay [1] (cells with 0.2 or 1 μg/ml LPS), the “IFN-γ production under the LPS stimulation” value is “stronger tendency of increasing production of IFN-γ”. Further, the IFN-γ result is on record as “Under 0.4 IU/ml” in assay [2] (no stimulation), 6.4 IU/ml in assay [2] (stimulation Con A 5 μg/ml) and 4.5 IU/ml in assay [2] (stimulation LPS 2 μg/ml). The IL-2 result in assay [2] (no stimulation) is “Under 50 pg”; in assay [2] (stimulation Con A 5 μg/ml), “Under 50 pg”; in assay [2] (stimulation LPS 2 μg/ml) it was 115 pg. Moreover, the IgA in assay [2] (no stimulation) stood at 719 ng/mL; in assay [2] (stimulation Con A 5 μg/ml), 1671 ng/mL; in assay [2] (stimulation LPS 2 μg/ml), 2305 ng/mL.
